According to US10570149B2, “Tricyclic heterocylic derivatives” (MERCK PATENT GMBH, priority 2016, dated 2020):

Legend:
ATR/ATRIP = target: T1, ATR/ATRIP (Homo sapiens, UniProt Q13535); assay: ATR/ATRIP kinase assay (TR-FRET, p53 phosphorylation); type: biochemical; conditions: Table 1, class symbols; read-out: ATR-ATRIP IC50
T1 construct: human ATR, full length, GenBank ID: NM_001184.3; p53: Sf21 insect cells

[1] = test system: phosphorylation of Chk1 (Ser 345) in HT29 colon adenocarcinoma cells; assay: pCHK1 cellular assay; type: cell-based; conditions: Homo sapiens
In short: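 HT29 cells plated ≥20 h, then compound (1 nM–30 μM final) with hydroxyurea (3 mM final) added together for 4 h at 37 °C. After MeOH/Triton fixation-permeabilisation, anti-pChk1 immunostaining plus nuclear stain; nuclear pChk1 imaged by confocal high content reader, reported as % positive nuclei.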

[2] = target: T2, Kv11.1 (hERG) ion channel (Homo sapiens, UniProt Q12809); assay: Kv11.1 (hERG) ion channel activity, whole cell patch clamp; type: cell-based; conditions: for Ki: Table 3, HEK293 hERG patch clamp
T2 construct: expressed in transfected cells; host or cells: HEK293
Experimental: Kv11.1 (hERG) Ion Channel Activity
In this assay, a potential in vitro effect of test compounds on the Kv11.1 (hERG) ion channel current is investigated which mediates the rapidly activating, delayed rectifier cardiac potassium current (IKr). The assay is performed with a stable Kv11.1 (hERG) transfected human embryonic kidney cell line (HEK293) by whole cell patch clamp technique carried out at room temperature.
The Kv11.1 (hERG) ion channel blocker quinidine is used as reference compound. The effects of the test compounds and quinidine are normalized to the corresponding vehicle control. The whole cell recordings are carried out with an automated patch clamp device Patchliner™, Nanion Technologies, Munich). Hereby the Patch Clamp measurements run on silicate-coated chips with a hole of a defined diameter. Solutions, cell suspension and compounds are applied by a Teflon-laminated pipette needle through microfluidic silicate-laminated channels. Commercial patch clamp amplifiers (EPC10, HEKA Elektronik Dr. Schulze GmbH, Germany) are used for the patch clamp recordings. HEK293 cells stably expressing the hERG gene are held at −80 mV. Steady-state inhibition of Kv11.1 (hERG) potassium current due to test/reference compound application is measured using a pulse pattern with fixed amplitudes: 51 ms/−80 mV, 500 ms/+40 mV, 500 ms/−40 mV, 200 ms/−80 mV. The hERG-specific voltage protocol is repeated at 10 s intervals. The leak current is subtracted by a P4 leak subtraction. Cells are resuspended in extracellular patch clamp solution (EC) and applied into the chip. After trapping the cell, the EC is exchanged by seal enhancer solution (SE) to improve the sealing procedure. When the whole cell configuration is attained, seal enhancer is washed out by the application of EC. The recording is started in EC for 1.5 min. Afterwards DMSO (vehicle control, 0.1% DMSO) is applied and the control current is measured for 3 min. Following control steady-state current, test compound is applied twice at the same concentration and the tail current is measured for 3.5 min each. For the determination of a concentration-relationship, the test compound is applied as a cumulative concentration-response curve and each concentration is measured for 5 min. The reference compound quinidine is treated in the same way. The effect on Kv11.1 (hERG) ion channel activity is judged from the tail current amplitude monitored at −40 mV (current of interest, COI). Results are calculated from the last recorded current traces. Changes in Kv11.1 (hERG) ion channel activity between control value, defined as 100% Kv11.1 (hERG) ion channel activity, application of test compound and application of quinidine is reported as percent change of control value of COI. An aliquot of test compound is collected for concentration verification during the recording. The sample is immediately measured by HPLC and the final compound concentration within the assay is calculated according to a calibration curve.

[3] = HT-29, Table 1, class symbols, hydroxyurea

T2 sequence (Q12809 whole entry): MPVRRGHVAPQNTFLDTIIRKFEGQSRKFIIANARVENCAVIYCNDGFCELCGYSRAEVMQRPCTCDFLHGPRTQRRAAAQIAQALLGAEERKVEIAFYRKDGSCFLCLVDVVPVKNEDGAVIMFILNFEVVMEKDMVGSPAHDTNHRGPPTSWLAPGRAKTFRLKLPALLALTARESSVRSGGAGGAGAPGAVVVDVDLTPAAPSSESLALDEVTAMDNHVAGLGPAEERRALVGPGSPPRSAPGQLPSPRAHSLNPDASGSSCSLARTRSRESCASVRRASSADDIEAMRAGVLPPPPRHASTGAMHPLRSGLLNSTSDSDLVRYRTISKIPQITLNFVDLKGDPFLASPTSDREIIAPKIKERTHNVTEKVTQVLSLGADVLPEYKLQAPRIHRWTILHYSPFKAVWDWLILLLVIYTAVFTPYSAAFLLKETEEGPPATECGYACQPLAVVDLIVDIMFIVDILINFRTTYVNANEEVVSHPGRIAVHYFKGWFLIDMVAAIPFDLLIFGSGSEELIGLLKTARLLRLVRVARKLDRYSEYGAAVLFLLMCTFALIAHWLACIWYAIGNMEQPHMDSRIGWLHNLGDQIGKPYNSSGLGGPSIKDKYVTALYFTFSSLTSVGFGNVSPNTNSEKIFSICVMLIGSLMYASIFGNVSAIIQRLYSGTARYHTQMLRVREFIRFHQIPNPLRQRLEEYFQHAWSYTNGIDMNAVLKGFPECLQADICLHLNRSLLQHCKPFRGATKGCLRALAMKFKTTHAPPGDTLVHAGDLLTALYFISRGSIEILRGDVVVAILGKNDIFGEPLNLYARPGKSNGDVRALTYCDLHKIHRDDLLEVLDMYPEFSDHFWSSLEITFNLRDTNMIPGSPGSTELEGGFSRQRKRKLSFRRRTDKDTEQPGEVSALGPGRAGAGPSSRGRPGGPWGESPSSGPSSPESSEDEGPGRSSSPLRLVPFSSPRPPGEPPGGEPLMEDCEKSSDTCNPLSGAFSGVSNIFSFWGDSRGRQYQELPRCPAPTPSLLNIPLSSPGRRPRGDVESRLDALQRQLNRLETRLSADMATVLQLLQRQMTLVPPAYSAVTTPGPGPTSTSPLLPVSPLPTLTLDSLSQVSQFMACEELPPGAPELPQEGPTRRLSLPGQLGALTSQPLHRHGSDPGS
T1 sequence (Q13535 whole entry): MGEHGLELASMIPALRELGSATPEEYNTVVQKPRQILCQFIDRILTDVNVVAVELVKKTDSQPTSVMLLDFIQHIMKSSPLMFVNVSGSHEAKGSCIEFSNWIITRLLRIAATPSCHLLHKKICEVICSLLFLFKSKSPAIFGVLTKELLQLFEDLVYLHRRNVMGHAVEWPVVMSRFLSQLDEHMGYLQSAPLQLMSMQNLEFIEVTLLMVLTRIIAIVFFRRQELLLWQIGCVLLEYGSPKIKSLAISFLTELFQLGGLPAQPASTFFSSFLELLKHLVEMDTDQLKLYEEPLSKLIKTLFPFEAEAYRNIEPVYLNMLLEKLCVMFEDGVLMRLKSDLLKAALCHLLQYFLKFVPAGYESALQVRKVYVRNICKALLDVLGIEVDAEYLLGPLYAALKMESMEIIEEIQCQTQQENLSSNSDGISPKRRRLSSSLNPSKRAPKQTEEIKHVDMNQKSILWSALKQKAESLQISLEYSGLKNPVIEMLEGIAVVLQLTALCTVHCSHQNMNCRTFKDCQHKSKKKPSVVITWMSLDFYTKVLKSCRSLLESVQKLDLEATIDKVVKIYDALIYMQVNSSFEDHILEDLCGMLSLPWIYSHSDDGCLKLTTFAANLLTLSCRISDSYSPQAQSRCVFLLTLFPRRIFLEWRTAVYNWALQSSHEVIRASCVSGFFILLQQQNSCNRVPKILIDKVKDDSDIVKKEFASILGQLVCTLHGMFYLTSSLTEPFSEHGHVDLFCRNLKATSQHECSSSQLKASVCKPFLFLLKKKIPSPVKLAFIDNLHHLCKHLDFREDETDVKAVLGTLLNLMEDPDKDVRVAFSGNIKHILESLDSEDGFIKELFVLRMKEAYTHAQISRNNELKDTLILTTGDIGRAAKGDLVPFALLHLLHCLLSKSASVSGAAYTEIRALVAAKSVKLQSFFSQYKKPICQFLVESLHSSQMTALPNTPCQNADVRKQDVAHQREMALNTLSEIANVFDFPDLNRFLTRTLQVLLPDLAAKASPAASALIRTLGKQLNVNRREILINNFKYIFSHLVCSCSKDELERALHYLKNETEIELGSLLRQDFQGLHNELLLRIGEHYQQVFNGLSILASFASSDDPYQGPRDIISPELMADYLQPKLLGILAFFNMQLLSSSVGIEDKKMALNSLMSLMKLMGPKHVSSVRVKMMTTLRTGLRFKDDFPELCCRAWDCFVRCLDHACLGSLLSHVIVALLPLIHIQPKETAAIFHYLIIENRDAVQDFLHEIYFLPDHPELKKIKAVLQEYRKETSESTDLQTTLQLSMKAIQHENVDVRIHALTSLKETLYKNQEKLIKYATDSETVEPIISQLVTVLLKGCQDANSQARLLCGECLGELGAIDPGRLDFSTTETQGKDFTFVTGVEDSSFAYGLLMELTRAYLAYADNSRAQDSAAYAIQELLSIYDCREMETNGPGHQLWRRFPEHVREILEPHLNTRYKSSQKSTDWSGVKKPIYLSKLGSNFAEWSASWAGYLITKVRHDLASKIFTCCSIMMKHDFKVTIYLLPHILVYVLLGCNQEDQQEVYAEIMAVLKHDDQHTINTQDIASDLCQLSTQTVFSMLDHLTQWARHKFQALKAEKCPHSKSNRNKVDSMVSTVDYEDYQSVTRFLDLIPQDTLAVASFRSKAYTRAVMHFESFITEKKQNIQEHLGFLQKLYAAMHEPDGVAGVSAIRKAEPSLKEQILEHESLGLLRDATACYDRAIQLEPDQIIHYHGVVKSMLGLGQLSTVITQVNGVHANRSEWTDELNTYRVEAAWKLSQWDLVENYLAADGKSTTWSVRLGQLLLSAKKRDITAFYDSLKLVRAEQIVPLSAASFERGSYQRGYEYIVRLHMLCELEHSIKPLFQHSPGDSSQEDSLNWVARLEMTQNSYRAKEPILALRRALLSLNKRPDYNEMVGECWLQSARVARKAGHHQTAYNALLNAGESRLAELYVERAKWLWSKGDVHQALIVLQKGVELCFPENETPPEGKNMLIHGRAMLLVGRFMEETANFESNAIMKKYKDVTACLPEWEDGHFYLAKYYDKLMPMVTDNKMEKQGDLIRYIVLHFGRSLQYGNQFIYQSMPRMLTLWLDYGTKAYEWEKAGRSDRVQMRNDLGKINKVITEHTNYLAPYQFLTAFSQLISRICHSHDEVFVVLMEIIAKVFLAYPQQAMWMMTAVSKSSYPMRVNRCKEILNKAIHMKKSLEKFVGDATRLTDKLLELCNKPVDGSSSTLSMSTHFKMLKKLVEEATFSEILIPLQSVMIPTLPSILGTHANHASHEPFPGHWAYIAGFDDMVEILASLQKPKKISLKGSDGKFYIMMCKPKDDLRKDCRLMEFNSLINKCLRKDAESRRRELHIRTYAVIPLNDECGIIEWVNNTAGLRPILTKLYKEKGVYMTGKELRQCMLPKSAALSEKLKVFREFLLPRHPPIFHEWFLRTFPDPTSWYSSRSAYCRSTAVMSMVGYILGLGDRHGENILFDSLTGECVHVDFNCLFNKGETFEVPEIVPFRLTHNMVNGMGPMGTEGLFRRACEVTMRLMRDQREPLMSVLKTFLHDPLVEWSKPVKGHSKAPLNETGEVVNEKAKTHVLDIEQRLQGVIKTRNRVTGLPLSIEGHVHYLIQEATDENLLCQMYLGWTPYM
T1 sequence (Q8WXE1 whole entry partner): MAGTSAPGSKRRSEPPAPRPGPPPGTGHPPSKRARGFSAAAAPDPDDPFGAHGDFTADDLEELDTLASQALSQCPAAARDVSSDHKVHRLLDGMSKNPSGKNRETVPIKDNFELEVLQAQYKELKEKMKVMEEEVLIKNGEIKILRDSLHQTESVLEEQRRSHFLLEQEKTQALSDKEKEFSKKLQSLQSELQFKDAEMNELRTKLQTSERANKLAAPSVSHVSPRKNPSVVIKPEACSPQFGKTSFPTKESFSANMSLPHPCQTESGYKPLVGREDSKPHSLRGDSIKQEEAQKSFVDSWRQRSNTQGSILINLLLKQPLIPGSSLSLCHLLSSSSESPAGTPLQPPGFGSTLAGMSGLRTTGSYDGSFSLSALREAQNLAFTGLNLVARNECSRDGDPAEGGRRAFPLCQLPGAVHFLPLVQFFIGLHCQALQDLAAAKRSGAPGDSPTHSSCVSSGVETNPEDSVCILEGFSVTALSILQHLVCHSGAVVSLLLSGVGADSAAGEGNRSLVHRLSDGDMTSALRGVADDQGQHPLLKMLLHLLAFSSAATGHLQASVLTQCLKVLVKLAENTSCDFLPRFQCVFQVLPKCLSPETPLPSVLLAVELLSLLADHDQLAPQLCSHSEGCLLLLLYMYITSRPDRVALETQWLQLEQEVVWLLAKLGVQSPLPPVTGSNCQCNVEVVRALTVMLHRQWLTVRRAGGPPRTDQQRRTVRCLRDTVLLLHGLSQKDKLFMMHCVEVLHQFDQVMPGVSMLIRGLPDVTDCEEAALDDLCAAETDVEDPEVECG

Row | SMILES | IC50 (ATR/ATRIP) [nM] | IC50 [1, 3] [nM] | IC50 ([1]; HT-29, Table 3, hydroxyurea) [nM] | hERG % effect @ conc ([2]; @ 30 μM) | Ki [2] [nM] | hERG % effect @ conc ([2]; @ 10 μM)
1 | CNc1cnc2[nH]ccc2c1-c1nc2c(c(C(C)(C)S(C)(=O)=O)n1)OC[C@@H]1COC[C@@H](C)N21 [A1, {4-[(S)-1-(1-Methanesulfonyl-1-methyl-ethyl)-5-(R)-methyl-5,6,8a,9-tetrahydro-8H-7,10-dioxa-2,4,4b-triaza-phenanthren-3-yl]-1H-pyrrolo[2,3-b]pyridin-5-yl}-methyl-amine] | < 1 | < 10 | 6.2 | (−50% @ 30 μM) | > 30000 | –
2 | C[C@@H]1COC[C@H]2COc3c(nc(-c4ccnc5[nH]ccc45)nc3C(C)(C)S(C)(=O)=O)N21 [A13, (6R,8aS)-1-(1-Methanesulfonyl-1-methyl-ethyl)-5-methyl-3-(1H-pyrrolo[2,3-b]pyridin-4-yl)-5,6,8a,9-tetrahydro-8H-7,10-dioxa-2,4,4b-triaza-phenanthrene] | < 1 | 10 to 100 | 20 | – | 6500 | (−55% effect @ 10 μM)
3 | C[C@@H]1COC[C@H]2COc3c(nc(-c4c(N)cnc5[nH]ccc45)nc3C(C)(C)S(C)(=O)=O)N21 [A20, 4-[(4bR,8S)-1-(1-Methanesulfonyl-1-methyl-ethyl)-5-methyl-5,6,8a,9-tetrahydro-8H-7,10-dioxa-2,4,4b-triaza-phenanthren-3-yl]-1H-pyrrolo[2,3-b]pyridin-5-ylamine] | < 1 | 10 to 100 | 36 | – | > 10000 | (−19% effect @ 10 μM)
